Experiments:
[1] = Dissolution of APAB on inclusion into CD, observed in a light microscope; format: physicochemical; conditions: MCD and HPCD
Procedure: The dependence of the dissolution degree on the content of CD in the system was determined. […] Since soluble complex forms of EG, apiol and other individual components of essential oils have been obtained, a quantitative study of the adjuvant and synergistic activities of APAB is relevant but previously impossible because of the stratification of substances and the formation of oil fractions. The following are the results of experiments to determine the antibacterial and synergistic effects of adjuvant–CD complexes.

[2] = set-up: method as in doi:10.1016/j.foodres.2009.06.006; conditions: complex with β-form of CD; cited from earlier work
[3] = set-up: method as in PMID 20214546; conditions: host:guest molar ratio of 1:1; cited from earlier work
[4] = tested on: Gram-negative bacteria; set-up: method as in PMID 19540744; conditions: cited from earlier work
[5] = Solid-phase FTIR microscopy of the EG–HPCD complex (distribution of EE); format: physicochemical; conditions: EG–HPCD complex in solid form
Text: To level the overlap of bond fluctuations in water molecules and the effect of hydration, the spectra of the EG–HPCD complex in solid form were registered as complementary materials (Figure S6). There are characteristic peaks of EG, which were quenched in the aqueous phase, C–Carom and C=C of the ethylene group. In the solid phase, we observed peaks corresponding to the stretching oscillations of CH2, CH3 groups (2900–3000 cm^−^1) and O-H (3200–3500 cm^−^1) without solvent contribution. […] EG was effectively (EE > 70%) included in two-thirds of the sample by quantity, in the remaining part EE exceeded 25–35%.
ATR-FTIR spectra of samples’ solutions (point 3.3.1) were recorded using a Bruker Tensor 27 spectrometer equipped with a liquid nitrogen cooled MCT (mercury cadmium telluride) detector. Samples were placed in a thermostatic cell BioATR-II with ZnSe ATR element (Bruker, Ettlingen, Germany). The IR spectrometer was merged with a constant flow of N2 (NiGen HF-1, Clint, Italy). FTIR spectra were acquired from 900 to 3000 cm^−1 with 1 cm^−1 spectral resolution. For each spectrum, 50–70 scans were accumulated at 20 kHz scanning speed and averaged. ATR-FTIR spectra of solid samples placed on KBr glass were recorded using a Bruker Lumos II IR microscope in the region from 700 to 4000 cm^−1 with 1 cm^−1 spectral resolution with scanning in the area on average 1 × 1 microns. […]

[6] = tested on: E. coli; set-up: method as in PMID 20214546; conditions: EG in the form of a complex with CD; cited from earlier work

SMILES	amount of CD required for a noticeable conversion to the complex/soluble form [1]	molar excess of CD for almost complete dissolution [1]	half-dissociation period [2] [h]	initial amount of EG included in CD [3] [%]	mass fraction of EG in the sample [3]	reduction of the MIC of antibiotics by EG as an adjuvant ([4]; Gram-negative bacteria, highest values for tetracycline and vancomycin)	concentration at which EG forms defects in the membranes of bacteria ([4]; suggested) [mM]	EE in the remaining part of the sample ([5]; remaining part)	EE in two-thirds of the sample ([5]; two-thirds of the sample by quantity) [%]	concentration already active in growth inhibition [6] [mg/mL]
C=CCc1cc(OC)c2c(c1OC)OCO2 [Apiol]	2 fold molar excess	10–15 fold molar excess								
C=CCc1ccc(O)c(OC)c1 [Eugenol, 4-allyl-2-methoxyphenol]	equimolar	5 fold molar excess	3	~92	about 58%	5–1000 times	1	25–35%	> 70	0.5

Reference: publication PMC9321718 (Pharmaceuticals, 2022)
